According to US10111435B2, “Herbicidal compositions containing N-(1,3,4-oxadiazol-2-yl)-aryl carboxylic acid amides” (BAYER CROPSCIENCE AKTIENGESELLSCHAFT, priority 2013, dated 2018):

Columns and labels:
Type in all cases: in vivo
[1] = system: Avena fatua (AVEFA); assay: greenhouse post-emergence herbicidal efficacy against AVEFA
Description: (§1) All trials whose results are shown were conducted in a greenhouse by the methodology specified below. The effect of the inventive herbicidal compositions was examined on the following harmful plants 14 and 21 days after application:
(§2) Echinochloa crus-galli (ECHCG), Eleusine indica (ELEIN), Setaria viridis (SETVI), Amaranthus retroflexus (AMARE), Chenopodium album (CHEAL), Kochia scoparia (KCHSC), Solanum nigrum (SOLNI), Avena fatua (AVEFA), Bromus sterilis (BROST), Lolium multiflorum (LOLMU), Phalaris minor (PHAMI), Poa annua (POAAN), Galium aparine (GALAP), Matricaria inodora (MATIN) and Polygonum convolvulus (POLCO).
(§3) The harmful plant seeds were sown in pots (diameter 8 cm) with sandy loam soil and germinated under optimal conditions. The inventive herbicidal compositions or the active ingredients alone were applied post-emergence to the planted pots with a spray volume of 300 L/ha. The trial was conducted in a greenhouse under optimum growth conditions. The herbicidal effects were assessed visually by comparison of untreated and treated plants. The percentages mean: 0%=no effects, 100%=the plants die off completely).
(§4) The abbreviations mean: • a.i.=active ingredient • E^C=expected value according to Colby (E^C=A+B−A×B/100) • Diff: =difference (%) of measured value from expected value (%) (measured value minus expected value)
(§5) Assessment: • measured value E is greater than E^C:->synergism (+ diff.) • measured value E equals E^C:->additive effect • measured value E is smaller than E^C:->antagonism(− diff.)

[2] = system: Lolium multiflorum (LOLMU); assay: greenhouse post-emergence herbicidal efficacy against LOLMU
Description: as §1, §2, §3, §4, §5

[3] = system: Phalaris minor (PHAMI); assay: greenhouse post-emergence herbicidal efficacy against PHAMI
Description: as §1, §2, §3, §4, §5

[4] = system: Bromus sterilis (BROST); assay: greenhouse post-emergence herbicidal efficacy against BROST
Description: as §1, §2, §3, §4, §5

[5] = system: Matricaria inodora (MATIN); assay: greenhouse post-emergence herbicidal efficacy against MATIN
Description: as §1, §2, §3, §4, §5

[6] = system: Galium aparine (GALAP); assay: greenhouse post-emergence herbicidal efficacy against GALAP
Description: as §1, §2, §3, §4, §5

[7] = system: Poa annua (POAAN); assay: greenhouse post-emergence herbicidal efficacy against POAAN
Description: as §1, §2, §3, §4, §5

[8] = system: Polygonum convolvulus (POLCO); assay: greenhouse post-emergence herbicidal efficacy against POLCO
Description: as §1, §2, §3, §4, §5

[9] = 14 days after application, 25 g of a.i./ha
[10] = 14 days after application, 100 g of a.i./ha
[11] = 21 days after application, g of a.i./ha: A1-55 2.5, glufosinate-ammonium 100
[12] = 21 days after application, g of a.i./ha: A1-55 10, glufosinate-ammonium 100
[13] = 21 days after application, g of a.i./ha: A1-55 2.5, glufosinate-ammonium 25
[14] = 21 days after application, g of a.i./ha: A1-55 10, glufosinate-ammonium 25
[15] = 14 days after application, 80 g of a.i./ha
[16] = 21 days after application, g of a.i./ha: A2-1 12.5, fluroxypyr 80
[17] = 21 days after application, g of a.i./ha: A2-1 50, fluroxypyr 80
[18] = 21 days after application, g of a.i./ha: A2-1 12.5, fluroxypyr 20
[19] = 21 days after application, g of a.i./ha: A2-1 50, fluroxypyr 20
[20] = 14 days after application, 20 g of a.i./ha
[21] = 14 days after application, g of a.i./ha: A1-60 2.5, isoproturon 400
[22] = 14 days after application, g of a.i./ha: A1-60 10, isoproturon 400
[23] = 14 days after application, g of a.i./ha: A1-60 10, isoproturon 1600
[24] = 21 days after application, g of a.i./ha: A1-60 2.5, isoproturon 400
[25] = 21 days after application, g of a.i./ha: A1-60 10, isoproturon 400
[26] = 21 days after application, g of a.i./ha: A1-60 10, isoproturon 1600
[27] = 14 days after application, g of a.i./ha: A1-60 2.5, isoproturon 1600

## CP(=O)(O)CCC(N)C(=O)O (centres unmarked) [glufosinate-ammonium]
[1]; [9]
  Efficacy: 0%
[1]; [10]
  Efficacy: 25%
[1]; [11]
  Efficacy: 20%
[1]; [12]
  Efficacy: 20%
[2]; [9]
  Efficacy: 0%
[2]; [10]
  Efficacy: 25%
[2]; [11]
  Efficacy: 15%
[2]; [12]
  Efficacy: 15%
[3]; [9]
  Efficacy: 0%
[3]; [10]
  Efficacy: 15%
[3]; [13]
  Efficacy: 0%
[3]; [11]
  Efficacy: 10%
[3]; [14]
  Efficacy: 0%
[3]; [12]
  Efficacy: 10%
[4]; [10]
  Efficacy: 15%
[4]; [11]
  Efficacy: 15%
[4]; [14]
  Efficacy: 0%
[5]; [9]
  Efficacy: 0%
[5]; [10]
  Efficacy: 30%
[5]; [13]
  Efficacy: 0%
[5]; [11]
  Efficacy: 15%
[5]; [14]
  Efficacy: 0%
[5]; [12]
  Efficacy: 15%
[6]; [9]
  Efficacy: 0%
[6]; [14]
  Efficacy: 0%
[7]; [10]
  Efficacy: 0%
[7]; [11]
  Efficacy: 5%
[7]; [12]
  Efficacy: 5%
[8]; [9]
  Efficacy: 0%
[8]; [10]
  Efficacy: 25%
[8]; [14]
  Efficacy: 0%
[8]; [12]
  Efficacy: 5%

## Nc1c(Cl)c(F)nc(OCC(=O)O)c1Cl [fluroxypyr]
[1]; [15]
  Efficacy: 0%
[1]; [16]
  Efficacy: 0%
[1]; [17]
  Efficacy: 0%
[2]; [15]
  Efficacy: 0%
[2]; [17]
  Efficacy: 0%
[3]; [15]
  Efficacy: 15%
[3]; [16]
  Efficacy: 0%
[3]; [17]
  Efficacy: 0%
[4]; [15]
  Efficacy: 0%
[4]; [17]
  Efficacy: 0%
[5]; [18]
  Efficacy: 20%
[5]; [16]
  Efficacy: 50%
[5]; [19]
  Efficacy: 20%
[5]; [17]
  Efficacy: 50%
[7]; [20]
  Efficacy: 0%
[7]; [18]
  Efficacy: 0%
[7]; [16]
  Efficacy: 10%
[8]; [20]
  Efficacy: 70%
[8]; [18]
  Efficacy: 80%
[8]; [19]
  Efficacy: 80%

## CC(C)c1ccc(NC(=O)N(C)C)cc1 [isoproturon]
[1]; [21]
  Efficacy: 0%
[1]; [22]
  Efficacy: 0%
[1]; [23]
  Efficacy: 35%
[1]; [24]
  Efficacy: 0%
[1]; [25]
  Efficacy: 0%
[1]; [26]
  Efficacy: 15%
[2]; [21]
  Efficacy: 0%
[2]; [27]
  Efficacy: 15%
[2]; [22]
  Efficacy: 0%
[2]; [23]
  Efficacy: 15%
[2]; [25]
  Efficacy: 0%
[2]; [26]
  Efficacy: 0%
[3]; [21]
  Efficacy: 35%
[3]; [22]
  Efficacy: 35%
[3]; [23]
  Efficacy: 80%
[3]; [24]
  Efficacy: 15%
[3]; [25]
  Efficacy: 15%
[4]; [21]
  Efficacy: 0%
[4]; [27]
  Efficacy: 5%
[4]; [22]
  Efficacy: 0%
[4]; [23]
  Efficacy: 5%
[4]; [25]
  Efficacy: 0%
[4]; [26]
  Efficacy: 0%
[5]; [24]
  Efficacy: 90%
[5]; [25]
  Efficacy: 90%
[6]; [21]
  Efficacy: 10%
[6]; [27]
  Efficacy: 20%
[6]; [22]
  Efficacy: 10%
[6]; [23]
  Efficacy: 20%
[6]; [24]
  Efficacy: 0%
[6]; 21 days after application, g of a.i./ha: A1-60 2.5, isoproturon 1600
  Efficacy: 0%
[6]; [25]
  Efficacy: 0%
[6]; [26]
  Efficacy: 0%
[7]; [27]
  Efficacy: 80%
[7]; [22]
  Efficacy: 60%
[7]; [23]
  Efficacy: 80%
[7]; [25]
  Efficacy: 30%
